The source of these data is patent US8791132B2, “Compounds and methods for treatment of hypertension” (Medivation Technologies, Inc., priority 2011, dated 2014).

Each structure is given as a SMILES string. Values joined by “and” are separate entries in the source; they are usually repeats but may differ in a detail not shown here. Equal values may be shown once. Read-outs that look alike come from different tables or passages of the source.

For assay [1], the target named is T1, human recombinant adrenergic α2A receptor (Homo sapiens, UniProt P08913).
T1 construct: expressed in transfected cells; host or cells: insect Sf9 cells
T1 sequence (P08913 1-465): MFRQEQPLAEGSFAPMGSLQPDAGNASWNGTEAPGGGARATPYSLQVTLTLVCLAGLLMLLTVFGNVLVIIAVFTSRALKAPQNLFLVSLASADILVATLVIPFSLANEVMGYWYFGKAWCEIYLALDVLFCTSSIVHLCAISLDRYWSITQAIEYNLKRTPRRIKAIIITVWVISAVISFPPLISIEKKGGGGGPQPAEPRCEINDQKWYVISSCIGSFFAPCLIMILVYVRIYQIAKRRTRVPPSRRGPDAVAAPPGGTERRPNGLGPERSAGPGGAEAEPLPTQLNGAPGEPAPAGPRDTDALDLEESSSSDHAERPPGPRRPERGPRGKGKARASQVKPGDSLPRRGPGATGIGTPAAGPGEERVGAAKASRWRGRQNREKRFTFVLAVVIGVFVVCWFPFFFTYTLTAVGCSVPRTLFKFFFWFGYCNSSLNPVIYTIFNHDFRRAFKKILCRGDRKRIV
The assay is described as follows: Radioligand binding, adrenergic α2A ([3H]MK-912). The essentials:
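Receptor expressed in insect Sf9 cells, assayed in 50 mM Tris-HCl pH 7.4 with 12.5 mM MgCl2 and 2 mM EDTA. Compounds incubated with 1 nM [3H]MK-912 for 60 min at 25 °C; nonspecific binding defined with 10 μM WB-4101. Filter-bound radioactivity counted; values are percent inhibition of specific binding.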

Assay [2] deals with T2, rat adrenergic α1B receptor (Rattus norvegicus, UniProt P15823).
T2 construct: rat adrenergic α1B receptor obtained from Wistar Rat liver; from tissue; host or cells: Wistar rat liver
T2 sequence (P15823 1-515): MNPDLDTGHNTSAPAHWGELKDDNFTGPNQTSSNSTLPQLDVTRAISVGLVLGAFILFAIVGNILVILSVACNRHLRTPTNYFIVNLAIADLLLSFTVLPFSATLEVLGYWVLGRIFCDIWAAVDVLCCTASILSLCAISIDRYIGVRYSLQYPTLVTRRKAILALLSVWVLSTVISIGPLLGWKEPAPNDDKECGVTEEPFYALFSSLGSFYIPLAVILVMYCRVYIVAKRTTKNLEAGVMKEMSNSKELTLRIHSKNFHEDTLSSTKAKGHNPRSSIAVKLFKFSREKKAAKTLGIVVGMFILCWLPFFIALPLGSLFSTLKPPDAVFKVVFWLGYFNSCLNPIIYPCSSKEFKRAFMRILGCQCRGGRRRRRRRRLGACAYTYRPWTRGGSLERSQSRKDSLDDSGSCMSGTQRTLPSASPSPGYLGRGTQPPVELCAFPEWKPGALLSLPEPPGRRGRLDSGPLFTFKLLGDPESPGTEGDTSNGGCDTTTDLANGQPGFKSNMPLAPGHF
The assay is described as follows: Radioligand binding, adrenergic α1B ([3H]Prazosin). As to conditions: [3H]Prazosin. The essentials:
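Incubation ran 60 min at 25 °C in Tris-HCl buffer (50 mM, pH 7.4, 0.5 mM EDTA) with Wistar rat liver α1B receptor. 10 μM phentolamine set non-specific binding.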

Assay [3] deals with T3, human recombinant adrenergic α2B receptor (Homo sapiens, UniProt P18089).
T3 construct: expressed in transfected cells; host or cells: CHO-K1
T3 sequence (P18089 1-450): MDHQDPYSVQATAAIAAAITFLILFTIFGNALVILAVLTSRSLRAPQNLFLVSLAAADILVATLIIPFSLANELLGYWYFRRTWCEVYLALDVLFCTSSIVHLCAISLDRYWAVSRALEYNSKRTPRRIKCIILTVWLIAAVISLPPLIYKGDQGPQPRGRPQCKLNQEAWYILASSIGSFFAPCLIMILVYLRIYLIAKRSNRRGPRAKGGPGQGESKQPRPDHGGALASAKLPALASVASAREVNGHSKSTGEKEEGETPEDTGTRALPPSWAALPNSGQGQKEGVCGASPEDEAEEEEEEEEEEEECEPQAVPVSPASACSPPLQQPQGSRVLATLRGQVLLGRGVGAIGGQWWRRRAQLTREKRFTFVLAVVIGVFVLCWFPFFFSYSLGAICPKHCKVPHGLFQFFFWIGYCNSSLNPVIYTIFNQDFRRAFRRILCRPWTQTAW
The assay is described as follows: Radioligand binding, adrenergic α2B ([3H]Rauwolscine). The following applies: for Ki: read-out: Ki α2B. The essentials: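 Receptor expressed in CHO-K1 cells, assayed in 50 mM Tris-HCl pH 7.4 with 12.5 mM MgCl2, 1 mM EDTA and 0.2% BSA. Compounds were incubated with 2.5 nM [3H]Rauwolscine for 60 min at 25° C; 10 μM Prazosin defined non-specific binding. Filter counting gave percent inhibition of specific binding.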

The mark [4] stands for this setting: compound at 0.1 μM, [3H]MK-912, repeat datapoints each shown, 0.1 µM.
The mark [5] stands for this setting: compound at 0.1 μM, repeat datapoints each shown, 0.1 µM.
The mark [6] stands for this setting: compound at 0.03 μM, [3H]Rauwolscine, repeat datapoints each shown, 0.03 µM.
Where [7] appears, read: read-out: Percentage inhibition of ligand binding, Adrenergic α2A (0.1 μM), compound at 0.1 μM, [3H]MK-912, repeat datapoints each shown.
Where [8] appears, read: read-out: Percentage inhibition of ligand binding, Adrenergic α2B (0.03 μM), compound at 0.03 μM, [3H]Rauwolscine, repeat datapoints each shown.
Setting [9] is: read-out: Percentage inhibition of ligand binding, Adrenergic α1B (0.1 μM), compound at 0.1 μM, repeat datapoints each shown.

For `Cc1ccc2c(c1)c1c(n2CC(C)(O)c2ccc(F)cc2)CCN2CCCC12` (single isomer, unassigned) [II-121b, 2-(4-fluoro-phenyl)-1-(9-methyl-1,2,3,4,5,10c-hexahydro-3a,6-diaza-cyclopenta[c]fluoren-6-yl)-propan-2-ol], the Ki – broadly, the equilibrium dissociation constant of an inhibitor or competing ligand from its target – in assay [1] came out at 9.18 nM; in assay [3] it was 0.22 nM. Moreover, the “Percentage inhibition of ligand binding, Adrenergic α2A (0.03 μM)” value in assay [1] (compound at 0.03 μM, [3H]MK-912, repeat datapoints each shown, 0.03 µM) turned out to be 54%. In addition, the “Percentage inhibition of ligand binding, Adrenergic α2A (0.1 μM)” value in assay [1] (setting [4]) was 80% and 85%. The “Percentage inhibition of ligand binding, Adrenergic α1B (0.03 μM)” value in assay [2] (compound at 0.03 μM, repeat datapoints each shown, 0.03 µM) was found to be 77%. In assay [2] (setting [5]), the “Percentage inhibition of ligand binding, Adrenergic α1B (0.1 μM)” value is 93% and 96%. Also, the “Percentage inhibition of ligand binding, Adrenergic α2B (0.03 μM)” value in assay [3] (setting [6]) was 100% and 103%.
As for `Cc1ccc2c(c1)c1c(n2CC(C)(O)c2ccc(C(N)=O)nc2)CCN(C)C1` (single isomer, unassigned) [II-136a, 5-(1-(1,2,3,4-tetrahydro-2,8-dimethylpyrido[4,3-b]indol-5-yl)-2-hydroxypropan-2-yl)pyridine-2-carboxamide], the inhibition – broadly, the relative decrease from the control value, in per cent – at 0.1 µM in assay [1] (setting [7]) was found to be 7%. In addition, the “Percentage inhibition of ligand binding, Adrenergic α1B (0.1 μM)” value in assay [2] (setting [5]) was 60%. Also, the inhibition at 0.03 µM in assay [3] (setting [8]) is 36%.
Turning to `Cc1cnc2c(c1)c1c(n2CC(C)(O)c2ccc(F)cc2)CCN2CCCC12` (single isomer, unassigned) [II-149b, 2-(4-fluoro-phenyl)-1-(9-methyl-1,2,3,4,5,10c-hexahydro-3a,6,7-triazacyclopenta[c]fluoren-6-yl)-propan-2-ol], in assay [1] (setting [4]), the “Percentage inhibition of ligand binding, Adrenergic α2A (0.1 μM)” value was determined as 27%. The “Percentage inhibition of ligand binding, Adrenergic α1B (0.1 μM)” value in assay [2] (setting [5]) is listed as 59%. Besides, the “Percentage inhibition of ligand binding, Adrenergic α2B (0.03 μM)” value in assay [3] (setting [6]) amounted to 96%.
For the molecule `Cc1cnc2c(c1)c1c(n2CC(O)c2ccc(F)cc2)CCN(C)C1` (single isomer, unassigned) [136a], the inhibition at 0.1 µM in assay [1] (setting [7]) was 16%. In assay [2] (setting [5]), the “Percentage inhibition of ligand binding, Adrenergic α1B (0.1 μM)” value was 54%. Moreover, the “Percentage inhibition of ligand binding, Adrenergic α2B (0.03 μM)” value in assay [3] (setting [6]) is 34%.
As for `Cc1ccc2c(c1)c1c(n2CC(C)(O)c2cccnc2)CCN(C)CC1` (single isomer, unassigned) [II-135b, 1-(3,9-dimethyl-2,3,4,5-tetrahydroazepino[4,5-b]indol-6(1H)-yl)-2-(pyridin-3-yl)propan-2-ol], the inhibition at 0.1 µM in assay [1] (setting [7]) turned out to be 40%; in assay [2] (setting [9]), 60%; in assay [3] (read-out: Percentage inhibition of ligand binding, Adrenergic α2B (0.1 μM), compound at 0.1 μM, [3H]Rauwolscine, repeat datapoints each shown), 105%. The “Percentage inhibition of ligand binding, Adrenergic α1B (0.1 μM)” value in assay [2] (setting [5]) was 70%. Further, the inhibition at 0.03 µM in assay [2] (read-out: Percentage inhibition of ligand binding, Adrenergic α1B (0.03 μM), compound at 0.03 μM, repeat datapoints each shown) turned out to be 26%; in assay [3] (setting [8]), 103%. Besides, in assay [3] (setting [6]), the “Percentage inhibition of ligand binding, Adrenergic α2B (0.03 μM)” value stood at 105%. For the same molecule, the inhibition constant Ki in assay [3] stood at 0.53 nM.
For the molecule `Cc1ccc2c(c1)c1c(n2CC(C)(O)c2cccnc2)CC(C)N(C)C1` (single isomer, unassigned) [II-146b, 2-(pyridin-3-yl)-1-(2,3,8-trimethyl-3,4-dihydro-1H-pyrido[4,3-b]indol-5(2H)-yl)propan-2-ol], the “Percentage inhibition of ligand binding, Adrenergic α2A (0.1 μM)” value in assay [1] (setting [4]) is on record as 5%. Also, the “Percentage inhibition of ligand binding, Adrenergic α1B (0.1 μM)” value in assay [2] (setting [5]) was 13%. Moreover, the “Percentage inhibition of ligand binding, Adrenergic α2B (0.03 μM)” value in assay [3] (setting [6]) was 43%.
On the same counts, the results for `Cc1ccc2c(c1)c1c(n2CC(C)(O)c2cccnc2)CC(C)N(C)C1` (single isomer, unassigned) [II-146d, 2-(pyridin-3-yl)-1-(2,3,8-trimethyl-3,4-dihydro-1H-pyrido[4,3-b]indol-5(2H)-yl)propan-2-ol] are 3%, 13% and 16%.
The matching figures for `CC1Cc2c(c3cc(Cl)ccc3n2CC(C)(O)c2cccnc2)CN1C` (single isomer, unassigned) [II-147c, 1-(8-chloro-2,3-dimethyl-3,4-dihydro-1H-pyrido[4,3-b]indol-5(2H)-yl)-2-(pyridin-3-yl)propan-2-ol]: 3%, 7% and 38%.
Take `Cc1ccc2c(c1)c1c(n2CC(C)(O)c2cccnc2)CNCC1` (stereo not drawn) [128b]: the results for the inhibition at 0.1 µM in assay [1] (setting [7]) and in assay [2] (setting [9]) were 22% and 45%, respectively. For the same molecule, the inhibition at 0.03 µM in assay [3] (setting [8]) is 54%.
As for `Cc1cnc2c(c1)c1c(n2CC(C)(O)c2cccnc2)CCN2CCCC12` (single isomer, unassigned) [26d], in assay [1] (compound at 0.1 μM, [3H]MK-912, repeat assays, each datapoint shown, 0.1 µM), the “Percentage inhibition of ligand binding, Adrenergic α2A” value was determined as 0%. For the same molecule, the “Percentage inhibition of ligand binding, Adrenergic α1B” value in assay [2] (compound at 0.1 μM, repeat assays, each datapoint shown, 0.1 µM) is reported as −2%. Further, the “Percentage inhibition of ligand binding, Adrenergic α2B” value in assay [3] (compound at 0.03 μM, [3H]Rauwolscine, repeat assays, each datapoint shown, 0.03 µM) was 6% and 11%.
Turning to `Cc1cnc2c(c1)c1c(n2CCc2ccc(C)nc2)CCN2CCCCC12` (single isomer, unassigned) [IV-8b], the “Percentage inhibition of ligand binding, Adrenergic α2A (0.1 μM)” value in assay [1] (setting [4]) amounted to 22%. The “Percentage inhibition of ligand binding, Adrenergic α1B (0.1 μM)” value in assay [2] (setting [5]) is 5%. In assay [3] (setting [6]), the “Percentage inhibition of ligand binding, Adrenergic α2B (0.03 μM)” value is recorded as 3%.
Consider `Cc1ccc2c(c1)c1c(n2CC(O)c2ccc(C(=O)O)cc2)CCN(C)C1` (stereo not drawn) [compound 67, 4-[2-(2,8-dimethyl-1,2,3,4-tetrahydro-pyrido[4,3-b]indol-5-yl)-1-hydroxy-ethyl]-benzoic acid], for which the inhibition at 0.1 µM was -7% in assay [1] (compound at 0.1 μM, [3H]MK-912, repeat assays, each datapoint shown, read-out: Percentage inhibition of ligand binding, Adrenergic α2A) and 12% in assay [2] (compound at 0.1 μM, repeat assays, each datapoint shown, read-out: Percentage inhibition of ligand binding, Adrenergic α1B). Further, the inhibition at 0.03 µM in assay [3] (compound at 0.03 μM, [3H]Rauwolscine, repeat assays, each datapoint shown, read-out: Percentage inhibition of ligand binding, Adrenergic α2B) is 17%.
Regarding `Cc1ccc2c(c1)c1c(n2CC(C)(OCC(=O)O)c2cccnc2)CCN(C)C1` (single isomer, unassigned) [V-14b, 2-((1-(2,8-dimethyl-3,4-dihydro-1H-pyrido[4,3-b]indol-5(2H)-yl)-2-(pyridin-3-yl)propan-2-yl)oxy)acetic acid], the “Percentage inhibition of ligand binding, Adrenergic α2A (0.1 μM)” value in assay [1] (setting [4]) stood at 3%. Further, in assay [2] (setting [5]), the “Percentage inhibition of ligand binding, Adrenergic α1B (0.1 μM)” value came to 2%. In addition, in assay [3] (setting [6]), the “Percentage inhibition of ligand binding, Adrenergic α2B (0.03 μM)” value came out at 0%.
For the molecule `Cc1ccc2c(n1)c1c(n2CC(O)c2ccncc2)CCN2CCCC12` (stereo not drawn) [II-122], the inhibition at 0.1 µM in assay [1] (setting [7]) was -10%; in assay [2] (setting [9]), -2%. Moreover, the inhibition at 0.03 µM in assay [3] (setting [8]) is 47%.
